Assay results: patent US20060128727A1, “Fungicidal mixtures based on a triazolopyrimidine derivative” (priority 2003, published 2006)

Tested on: Plasmopara viticola
Test: Activity against peronospora of grapevines caused by Plasmopara viticola (protective spray test on potted vines)
Type: in vivo
Settings: individual active compound, vines cultivar Riesling
Procedure: The active compounds, separately or jointly, were prepared as a stock solution comprising 0.25% by weight of active compound in acetone or DMSO. 1% by weight of the emulsifier Uniperol® EL (wetting agent having emulsifying and dispersant action based on ethoxylated alkylphenols) was added to this solution, and the mixture was diluted with water to the desired concentration. USE EXAMPLE
Leaves of potted vines of the cultivar “Riesling” were sprayed to runoff point with an aqueous suspension having the concentration of active compound stated below. The next day, the undersides of the leaves were inoculated with an aqueous zoospore suspension of Plasmopara viticola. The grapevines were then initially placed in a water-vapor-saturated chamber at 24° C. for 48 hours and then in a greenhouse at 20-30° C. for 5 days. After this period of time, the plants were again placed in a humid chamber for 16 hours to promote sporangiophore eruption. The extent of the development of the disease on the undersides of the leaves was then determined visually.
The visually determined percentages of infected leaf areas were converted into efficacies in % of the untreated control:
The efficacy (E) is calculated as follows using Abbot's formula: E=(1−α/β)·100 • α corresponds to the fungicidal infection of the treated plants in % and • β corresponds to the fungicidal infection of the untreated (control) plants in %
An efficacy of 0 means that the infection level of the treated plants corresponds to that of the untreated control plants; an efficacy of 100 means that the treated plants were not infected.
The expected efficacies of mixtures of active compounds were determined using Colby's formula (Colby, S. R. “Calculating synergistic and antagonistic responses of herbicide combinations”, Weeds, 15, 20-22, 1967) and compared with the observed efficacies.
Colby's Formula: E=x+y−x·y/100 • E expected efficacy, expressed in % of the untreated control, when using the mixture of the active compounds A and B at the concentrations a and b • x efficacy, expressed in % of the untreated control, when using the active compound A at the concentration a • y efficacy, expressed in % of the untreated control, when using the active compound B at the concentration b

Compound	Efficacy in % of the untreated control (4 ppm in the spray liquor) [%]	Efficacy in % of the untreated control (1 ppm in the spray liquor) [%]	Efficacy in % of the untreated control (63 ppm in the spray liquor) [%]
CC1CCN(c2c(-c3c(F)cccc3Cl)c(Cl)nc3ncnn23)CC1 [Comparison A]	0		
C[C@H](Nc1c(-c2c(F)cc(F)cc2F)c(Cl)nc2ncnn12)C(F)(F)F [Comparison B]	11		
CC1CCN(c2c(-c3c(F)cc(F)cc3F)c(Cl)nc3ncnn23)CC1 [I, 5-chloro-7-(4-methylpiperidin-1-yl)-6-(2,4,6-trifluorophenyl)-[1,2,4]triazolo[1,5-a]pyrimidine]	56		
Cc1cc(C)nc(Nc2ccccc2)n1 [II-1, (4,6-dimethylpyrimidin-2-yl)phenylamine]	0	0	0
Cc1cc(C2CC2)nc(Nc2ccccc2)n1 [II-2, (4-cyclopropyl-6-methylpyrimidin-2-yl)phenylamine]	0	0	0
CC#Cc1cc(C)nc(Nc2ccccc2)n1 [II-3, (4-methyl-6-prop-1-ynylpyrimidin-2-yl)phenylamine]	0	0	0
